1 compound from US20220305017A1, “COMPOSITIONS AND METHODS FOR THE TREATMENT OF ESTROGEN-DEPENDENT DISORDERS” (ObsEva S.A., priority 2019, published 2022) can be followed below.

For one series, the target named is T1, human GnRH receptor (Homo sapiens, UniProt P30968).
T1 sequence (P30968 1-328): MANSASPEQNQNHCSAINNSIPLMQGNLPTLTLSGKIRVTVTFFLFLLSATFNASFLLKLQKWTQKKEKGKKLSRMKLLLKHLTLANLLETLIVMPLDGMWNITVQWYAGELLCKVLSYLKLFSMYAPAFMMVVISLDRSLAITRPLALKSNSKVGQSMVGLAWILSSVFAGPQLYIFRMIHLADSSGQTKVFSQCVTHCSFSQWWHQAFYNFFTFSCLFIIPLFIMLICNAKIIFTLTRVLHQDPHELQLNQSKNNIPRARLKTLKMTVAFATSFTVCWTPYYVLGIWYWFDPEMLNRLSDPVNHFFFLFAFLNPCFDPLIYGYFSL
The series is described as follows: affinity for human GnRH receptor. The series is classed as binding. Conditions: compound (VI) as well as its salts such as the choline salt; kind of constant not stated.

Series [1] concerns human female patients diagnosed as having uterine fibroids. The series is described as follows: PRIMROSE 1 Phase 3 placebo-controlled trial in uterine fibroids. The class given is in vivo. The following applies: for proportion of patients with menstrual blood loss ≤80 mL and ≥50% reduction from baseline: 24 weeks. From the text:
This example describes the results of two Phase 3, double-blind, randomized, placebo-controlled, multicenter, human clinical trials undertaken to evaluate the efficacy of the GnRH antagonist represented by formula (VI) in a series of patients suffering from uterine fibroids. In these trials, referred to herein as “PRIMROSE 1” and “PRIMROSE 2,” human female patients diagnosed as having uterine fibroids were periodically administered compound (VI), 3-[2-fluoro-5-(2,3-difluoro-6-methoxybenzyloxy)4-methoxyphenyl]-2,4-dioxo-1,2,3,4-tetrahydrothieno [3,4d]pyrimidine-5-carboxylic acid, in the form of a choline salt over the course of a 12-month treatment period. Patients were administered compound (VI) once daily in an amount of either 100 mg or 200 mg. Patients receiving compound (VI) in a daily amount of 200 mg also received once daily hormonal add-back therapy (ABT), which consisted of […] of β17-estradiol (E2) per day and 0.5 mg of norethindrone acetate (NETA) per day.
The PRIMROSE 1 study, conducted in the United States, enrolled 526 women. The PRIMROSE 2 study, conducted in the United States and Europe, enrolled 535 women.
Patients were randomized to one of several cohorts: (i) placebo, (ii) 100 mg/day of compound (VI), or (iii) 200 mg/day of compound (VI). Patients receiving 200 mg/day of compound (VI) also received once-daily ABT containing 1.0 mg E2 and 0.5 mg NETA.
Patients were assessed for uterine fibroid symptomology at baseline, after 24 weeks of treatment, and again after 52 weeks of treatment. […] Patients were also assessed in order to determine the number of days of uterine bleeding during their last 28-day interval prior to week 24 of treatment with placebo or compound (VI).
Pain levels were measured using a Verbal Rating Score (VRS), as described herein. Patients were also assessed to determine the proportion that reported an improvement in quality of life using the Uterine Fibroids Symptoms and Health-Related Quality of Life questionnaire.
To evaluate the safety of compound (VI), patients' bone mineral density levels were measured at baseline and at various timepoints during the studies.

Series [2] concerns human female patients diagnosed as having endometriosis. Nature of the series: Phase 2b human clinical trial in endometriosis, 24-week treatment and post-treatment follow-up. The series is classed as in vivo. Conditions: for Bone Mineral Density (Mean % change from baseline): spine. On the procedure: This example describes the results of a Phase 2b human clinical trial undertaken to evaluate the efficacy of a GnRH antagonist represented by formula (VI) in a series of patients suffering from an estrogen-dependent disease. In this trial, a series of human female patients diagnosed as having endometriosis were administered the choline salt of 3-[2-fluoro-5-(2,3-difluoro-6-methoxybenzyloxy)4-methoxyphenyl]-2,4-dioxo-1,2,3,4-tetrahydrothieno [3,4d]pyrimidine-5-carboxylic acid periodically over the course of a 24-week treatment period. After 24 weeks of treatment, various patients entered a 24-week post-treatment follow-up period during which the patients were monitored for serum β17-estradiol (E2) concentration, severity of disease symptoms, and bone mineral density.
A series of n=328 human female patients having clinically-diagnosed endometriosis were randomly assigned to treatment arms in which patients were to be administered placebo or the GnRH antagonist in a once-daily amount of 50 mg/day, 100 mg/day, 75 mg/day, or 200 mg/day. Patients initially treated with placebo (plc) were administered the GnRH antagonist in an amount of 100 mg/day after 12 weeks. Also, after 12 weeks, patients that were initially administered 75 mg/day were provided a higher (100 mg/day) or lower (50 mg/day) dosage of the GnRH antagonist based on the patients' E2 levels at the 12-week point. The E2 levels for this group of patients is represented by “75 mg (TD)” in FIGS. 1-3. Patients that were administered 75 mg through the end of the treatment period are represented by “75 mg (FD)” in FIGS. 1-3.
After 24 weeks of continuous, once-daily treatment, administration of the GnRH antagonist ceased. A set of n=65 patients entered the 24-week post-treatment follow-up study. Following the 24-week treatment period, these patients were periodically monitored. The median E2 levels of patients that were administered the GnRH antagonist during the original 24-week treatment period and that subsequently entered the 24-week post-treatment follow-up study are shown in FIG. 1. FIGS. 2 and 3 show the mean change in dyspareunia and dyschezia scores for such patients over the 24-week treatment period and a 12-week portion of the post-treatment follow-up period.

Take `COc1cc(F)c(-n2c(=O)[nH]c3csc(C(=O)O)c3c2=O)cc1OCc1c(OC)ccc(F)c1F` [Compound (VI), 3-[2-fluoro-5-(2,3-difluoro-6-methoxybenzyloxy)4-methoxyphenyl]-2,4-dioxo-1,2,3,4-tetrahydrothieno [3,4d]pyrimidine-5-carboxylic acid]: the “affinity for human GnRH receptor” value at human GnRH receptor came out at 27.4 nM. For the same compound, the “p value: Improvement in quality of life, Change from baseline in quality of life (QoL) symptom severity score (LS mean)” value is recorded as “p = 0.002” in series [1] (100 mg/day) and “p < 0.001” in series [1] (200 mg/day + once-daily ABT). The “proportion of patients with menstrual blood loss ≤80 mL and ≥50% reduction from baseline” value in series [1] (100 mg per day without ABT, p=0.003, placebo 35%) is listed as 56.4%; in series [1] (200 mg per day + ABT (1.0 mg E2 + 0.5 mg NETA), p<0.001, placebo 35%), 75.5%. In addition, the “bone mineral density, lumbar spine” value in series [1] (once-daily treatment, 24 and 52 weeks, FIG. 9) is listed as “does not induce a substantial decrease in bone mineral density”. The “Overall Pelvic Pain Responder Rate (VRS score reduction of > 30% from baseline)” value in series [2] (75 mg once daily (choline salt), after 24 weeks of treatment, n = 48) was 70.8%; in series [2] (75 mg once daily for 24 weeks, 12 weeks after cessation of treatment, n = 7), 87.5%; in series [2] (200 mg once daily (choline salt), after 24 weeks of treatment, n = 44) it was 77.3%; in series [2] (200 mg once daily for 24 weeks, 12 weeks after cessation of treatment, n = 10) it was 70.0%. Also, in series [2] (after cessation of 24-week once-daily treatment, 12-week portion of follow-up, FIG. 2), the “dyspareunia, Verbal Rating Score (VRS)” value was “sustained reduction”. For the same compound, in series [2] (after cessation of 24-week once-daily treatment, 12-week portion of follow-up, FIG. 3), the “dyschezia, Numerical Rating Score (NRS)” value is “sustained reduction”. For the same compound, the “Bone Mineral Density (Mean % change from baseline)” value in series [2] (75 mg once daily for 24 weeks, 12 weeks after cessation of treatment) was “+0.313%”; in series [2] (75 mg once daily, after 24 weeks of treatment), −0.798%; in series [2] (200 mg once daily for 24 weeks, 12 weeks after cessation of treatment), “+1.135%”; in series [2] (200 mg once daily, after 24 weeks of treatment), −2.602%.
